# Tests used:
# [1] = tested on: solid tumor cancers, particularly ovarian cancer and non-small cell lung carcinoma; details: humans; cited from earlier work
# Colon Carcinoma 26 = test: Efficacy in mouse tumor model Colon Carcinoma 26; assay type: in vivo
# Description: (§1) The efficacy of the compounds of the present invention was also tested in vivo using three well-known mouse tumor models: L1210, Lewis Lung, and Colon Carcinoma 26.
# Lewis Lung = test: Efficacy in mouse tumor model Lewis Lung; assay type: in vivo
# Description: as §1
# L1210 = test: Efficacy in mouse tumor model L1210; assay type: in vivo
# Description: as §1
# topoisomerase II = details: cited from earlier work
# [2] = in vivo; cited from earlier work
# [3] = tested on: topoisomerase I; mouse tumor models; test: Overall comparison of topoisomerase I inhibition ability, cytotoxicity and efficacy in mouse tumor models; details: results of Table I
compound,measurement,setting,value
"CC[C@@]1(O)C(=O)OCc2c1cc1n(c2=O)Cc2cc3c(CN(C)C)c(O)ccc3nc2-1 [Topotecan, 9-dimethylaminomethyl-10-hydroxycamptothecin]",efficacy in clinical tests,[1],"efficacy against several solid tumor cancers, particularly ovarian cancer and non-small cell lung carcinoma"
same,"% Inc. in Lifespan, Colon 26",Colon Carcinoma 26; 20 mg/kg sc,45%
same,"% Inc. in Lifespan, Lewis Lung",Lewis Lung; 15 mg/kg ip,106%
same,"% Inc. in Lifespan, L1210",L1210; 15 mg/kg ip,217%
CC[C@@]1(O)C(=O)OCc2c1cc1n(c2=O)Cc2cc3ccccc3nc2-1 [Camptothecin],"% Inc. in Lifespan, Colon 26",Colon Carcinoma 26; 4 mg/kg ip,50%
same,"% Inc. in Lifespan, L1210",L1210; 12 mg/kg ip,133%
COc1cc([C@@H]2c3cc4c(cc3[C@@H](O[C@@H]3O[C@@H]5CO[C@@H](C)O[C@H]5[C@H](O)[C@H]3O)[C@H]3COC(=O)[C@H]23)OCO4)cc(OC)c1O [etoposide],effect on topoisomerase II,topoisomerase II,Inhibition of topoisomerase II
COc1cccc2c1C(=O)c1c(O)c3c(c(O)c1C2=O)C[C@@](O)(C(=O)CO)C[C@@H]3O[C@H]1C[C@H](N)[C@H](O)[C@H](C)O1 [doxorubicin],effect on topoisomerase II,topoisomerase II,Inhibition of topoisomerase II
"(S)-10-amino-4-ethyl-4-hydroxy-1H-pyrano[3',4':6,7]indolizino[1,2-b]quinoline-3,14(4H,12H)-dione [CPT-11]",toxicity profile,[2],adverse toxicity profile
"CC[C@@]1(O)C(=O)OCc2c1cc1n(c2=O)Cc2cc3c4c(ccc3nc2-1)OC(CN(C)C)C4 (stereo partly drawn) [Formula IV, (8S)-2-[(dimethylamino)methyl]-8-ethyl-1,2-dihydro-8-hydroxy-11H-furano[3,2-f]-pyrano[3',4':6,7]indolizino[1,2-b]quinoline-9,12(8H,14H)-dione]","% Inc. in Lifespan, Colon 26",Colon Carcinoma 26; 20 mg/kg sc,32%
same,biological activity compared with camptothecin and topotecan,[3],comparable to camptothecin and topotecan
same,"% Inc. in Lifespan, Lewis Lung",Lewis Lung; 9 mg/kg ip,67%
same,"% Inc. in Lifespan, L1210",L1210; 15 mg/kg ip,225%
"CC[C@@]1(O)C(=O)OCc2c1cc1n(c2=O)Cc2cc3c4c(ccc3nc2-1)OC(CN1CCOCC1)C4 (stereo partly drawn) [Formula III, (8S)-8-ethyl-1,2-dihydro-8-hydroxy-2(4-morpholinylmethyl)-11H-furano[3,2-f]-pyrano[3',4':6,7]indolizino[1,2-b]quinoline-9,12(8H,14H)-dione]","% Inc. in Lifespan, Colon 26",Colon Carcinoma 26; 20 mg/kg sc,45%
same,biological activity compared with camptothecin and topotecan,[3],comparable to camptothecin and topotecan
same,"% Inc. in Lifespan, Lewis Lung",Lewis Lung; 22 mg/kg ip,> 225%
same,"% Inc. in Lifespan, L1210",L1210; 42 mg/kg ip,350%
O=C1c2c(O)ccc(O)c2C(=O)c2c(NCCNCCO)ccc(NCCNCCO)c21 [mitoxantrone],effect on topoisomerase II,topoisomerase II,Inhibition of topoisomerase II
